Assay results as given in PubChem BioAssay (NCI).
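In this assay, cells in 96-well plates receive the compound at five concentrations for 48 hours. Endpoints are linearly interpolated between the surrounding concentrations. The concentration for full growth arrest is given as TGI.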

Key:
Experiment in all cases: NCI anticancer screen, dose series, 48 h
SR leukemia = test system: SR leukemia
COLO 205 colon = test system: COLO 205 colon
NCI-H226 lung = test system: NCI-H226 lung
HL-60(TB) leukemia = test system: HL-60(TB) leukemia
SNB-75 CNS = test system: SNB-75 CNS
HCT-15 colon = test system: HCT-15 colon
TK-10 renal = test system: TK-10 renal
SF-268 CNS = test system: SF-268 CNS
CAKI-1 renal = test system: CAKI-1 renal
U251 CNS = test system: U251 CNS
RXF 393 renal = test system: RXF 393 renal
HCC-2998 colon = test system: HCC-2998 colon
RXF-631 renal = test system: RXF-631 renal
NCI-H460 lung = test system: NCI-H460 lung
DMS 114 small cell lung = test system: DMS 114 small cell lung
ACHN renal = test system: ACHN renal
HT29 colon = test system: HT29 colon
HOP-92 NSCLC = test system: HOP-92 NSCLC
A498 renal = test system: A498 renal
UACC-257 melanoma = test system: UACC-257 melanoma
SK-MEL-2 melanoma = test system: SK-MEL-2 melanoma
HOP-18 NSCLC = test system: HOP-18 NSCLC
A549 NSCLC = test system: A549 NSCLC
MOLT-4 leukemia = test system: MOLT-4 leukemia
SN12C renal = test system: SN12C renal
SF-295 CNS = test system: SF-295 CNS
RPMI-8226 leukemia = test system: RPMI-8226 leukemia
HCT-116 colon = test system: HCT-116 colon
KM12 colon = test system: KM12 colon
OVCAR-4 ovarian = test system: OVCAR-4 ovarian
DMS 273 small cell lung = test system: DMS 273 small cell lung
SF-539 CNS = test system: SF-539 CNS
EKVX NSCLC = test system: EKVX NSCLC
XF 498 CNS = test system: XF 498 CNS
IGROV1 ovarian = test system: IGROV1 ovarian
OVCAR-5 ovarian = test system: OVCAR-5 ovarian
SK-MEL-28 melanoma = test system: SK-MEL-28 melanoma
CCRF-CEM leukemia = test system: CCRF-CEM leukemia
NCI-H23 lung = test system: NCI-H23 lung
M14 melanoma = test system: M14 melanoma
LXFL 529 NSCLC = test system: LXFL 529 NSCLC
K-562 leukemia = test system: K-562 leukemia
OVCAR-8 ovarian = test system: OVCAR-8 ovarian
SW-620 colon = test system: SW-620 colon
SNB-19 CNS = test system: SNB-19 CNS
MALME-3M melanoma = test system: MALME-3M melanoma
SNB-78 CNS = test system: SNB-78 CNS
OVCAR-3 ovarian = test system: OVCAR-3 ovarian
LOX IMVI melanoma = test system: LOX IMVI melanoma
UO-31 renal = test system: UO-31 renal
SK-OV-3 ovarian = test system: SK-OV-3 ovarian
786-0 renal = test system: 786-0 renal
DLD-1 colon = test system: DLD-1 colon
M19-MEL melanoma = test system: M19-MEL melanoma
HOP-62 NSCLC = test system: HOP-62 NSCLC
NCI-H522 lung = test system: NCI-H522 lung
SK-MEL-5 melanoma = test system: SK-MEL-5 melanoma
UACC-62 melanoma = test system: UACC-62 melanoma

O=C(Nc1ccc2[nH]c3c(-c4ccccc4)nccc3c2c1)c1ccccc1[N+](=O)[O-] gave a TGI (SR leukemia) of 6.97 µM, a TGI (COLO 205 colon) of 23.5 µM and a TGI (NCI-H226 lung) of 6.2 µM. The TGI (HL-60(TB) leukemia) was 10.6 µM, the TGI (SNB-75 CNS) was 9.14 µM and the TGI (HCT-15 colon) was 5.32 µM. The TGI (TK-10 renal) was 27.6 µM, the TGI (SF-268 CNS) was > 100 µM and the TGI (CAKI-1 renal) was > 100 µM. It also gave a TGI (U251 CNS) of 16.7 µM, a TGI (RXF 393 renal) of 3.69 µM and a TGI (HCC-2998 colon) of 11.4 µM. The TGI (RXF-631 renal) was > 100 µM, the TGI (NCI-H460 lung) was > 100 µM and the TGI (DMS 114 small cell lung) was > 100 µM. For the same molecule, the TGI (ACHN renal) was > 100 µM, the TGI (HT29 colon) was 4.3 µM and the TGI (HOP-92 NSCLC) was 8.97 µM. It also gave a TGI (A498 renal) of 9.47 µM, a TGI (UACC-257 melanoma) of 30.7 µM and a TGI (SK-MEL-2 melanoma) of 21.4 µM. For the same molecule, the TGI (HOP-18 NSCLC) was > 100 µM, the TGI (A549 NSCLC) was > 100 µM and the TGI (MOLT-4 leukemia) was 15.3 µM. For the same molecule, the TGI (SN12C renal) was > 100 µM, the TGI (SF-295 CNS) was 3.7 µM and the TGI (RPMI-8226 leukemia) was > 100 µM. For the same molecule, the TGI (HCT-116 colon) was > 100 µM, the TGI (KM12 colon) was > 100 µM and the TGI (OVCAR-4 ovarian) was > 100 µM. For the same molecule, the TGI (DMS 273 small cell lung) was 3.76 µM, the TGI (SF-539 CNS) was 3.46 µM and the TGI (EKVX NSCLC) was > 100 µM. The TGI (XF 498 CNS) was 18.9 µM, the TGI (IGROV1 ovarian) was > 100 µM and the TGI (OVCAR-5 ovarian) was 4.63 µM. The TGI (SK-MEL-28 melanoma) was > 100 µM, the TGI (CCRF-CEM leukemia) was > 100 µM and the TGI (NCI-H23 lung) was 33.5 µM. For the same molecule, the TGI (M14 melanoma) was 5.88 µM, the TGI (LXFL 529 NSCLC) was 47.2 µM and the TGI (K-562 leukemia) was > 100 µM. The TGI (OVCAR-8 ovarian) was > 100 µM, the TGI (SW-620 colon) was 37.3 µM and the TGI (SNB-19 CNS) was > 100 µM. For the same molecule, the TGI (MALME-3M melanoma) was 3.64 µM and the TGI (SNB-78 CNS) was > 100 µM.
With Cc1cc(C)nc(Sc2c([N+](=O)[O-])ncn2C)n1 the TGI (SR leukemia) was > 100 µM, the TGI (COLO 205 colon) was > 100 µM and the TGI (OVCAR-3 ovarian) was > 100 µM. For the same molecule, the TGI (NCI-H226 lung) was > 100 µM, the TGI (SNB-75 CNS) was > 100 µM and the TGI (LOX IMVI melanoma) was > 100 µM. For the same molecule, the TGI (TK-10 renal) was > 100 µM, the TGI (SF-268 CNS) was > 100 µM and the TGI (CAKI-1 renal) was > 100 µM. For the same molecule, the TGI (U251 CNS) was > 100 µM, the TGI (UO-31 renal) was > 100 µM and the TGI (SK-OV-3 ovarian) was > 100 µM. For the same molecule, the TGI (HCC-2998 colon) was > 100 µM, the TGI (786-0 renal) was > 100 µM and the TGI (RXF-631 renal) was > 100 µM. For the same molecule, the TGI (NCI-H460 lung) was > 100 µM, the TGI (DMS 114 small cell lung) was > 100 µM and the TGI (ACHN renal) was > 100 µM. The TGI (HT29 colon) was > 100 µM, the TGI (HOP-92 NSCLC) was > 100 µM and the TGI (A498 renal) was > 100 µM. The TGI (UACC-257 melanoma) was > 100 µM, the TGI (SK-MEL-2 melanoma) was > 100 µM and the TGI (HOP-18 NSCLC) was 85.4 µM. For the same molecule, the TGI (A549 NSCLC) was > 100 µM, the TGI (DLD-1 colon) was > 100 µM and the TGI (MOLT-4 leukemia) was > 100 µM. The TGI (SN12C renal) was > 100 µM, the TGI (M19-MEL melanoma) was > 100 µM and the TGI (SF-295 CNS) was > 100 µM. For the same molecule, the TGI (RPMI-8226 leukemia) was > 100 µM, the TGI (HCT-116 colon) was > 100 µM and the TGI (KM12 colon) was > 100 µM. For the same molecule, the TGI (OVCAR-4 ovarian) was > 100 µM, the TGI (DMS 273 small cell lung) was > 100 µM and the TGI (SF-539 CNS) was > 100 µM. The TGI (HOP-62 NSCLC) was > 100 µM, the TGI (EKVX NSCLC) was > 100 µM and the TGI (NCI-H522 lung) was > 100 µM. The TGI (XF 498 CNS) was > 100 µM, the TGI (IGROV1 ovarian) was > 100 µM and the TGI (SK-MEL-5 melanoma) was > 100 µM. The TGI (OVCAR-5 ovarian) was > 100 µM, the TGI (SK-MEL-28 melanoma) was > 100 µM and the TGI (UACC-62 melanoma) was > 100 µM. For the same molecule, the TGI (CCRF-CEM leukemia) was > 100 µM, the TGI (NCI-H23 lung) was > 100 µM and the TGI (M14 melanoma) was > 100 µM. For the same molecule, the TGI (LXFL 529 NSCLC) was > 100 µM, the TGI (K-562 leukemia) was > 100 µM and the TGI (OVCAR-8 ovarian) was > 100 µM. For the same molecule, the TGI (SW-620 colon) was > 100 µM, the TGI (SNB-19 CNS) was > 100 µM and the TGI (MALME-3M melanoma) was > 100 µM. The TGI (SNB-78 CNS) was > 100 µM.
